Values of other authors as cited in PubChem BioAssay AID1259409 (Chemical Carcinogenesis Research Information System (CCRIS), 2018).

System: rodent chemically induced tumor inhibition, incidence and multiplicity
Assay: CCRIS tumor inhibitor studies

SMILES | tumour outcome (control, treated, inhibition, significance) (Carcinogen: 7,12-DIMETHYLBENZ[A]ANTHRACENE (57-97-6), Dose [Inhibitor]: 40 MG/KG DIET 1 WK AFTER CARCINOGEN TO END, Route [Inhibitor]: DIET, Species: RAT, Strain/Sex: SPRAGUE-DAWLEY/FEMALE, Target Tissue: Type of Lesion: MAMMARY GLAND: TUMOR, Dose [Carcinogen]: 15 MG AT 50 D OF AGE, ONCE) | tumour outcome (control, treated, inhibition, significance) (Carcinogen: 7,12-DIMETHYLBENZ[A]ANTHRACENE (57-97-6), Dose [Inhibitor]: 40 MG/KG DIET 2 WKS BEFORE CARCINOGEN AND 1 WK AFTER CARCINOGEN, Route [Inhibitor]: DIET, Species: RAT, Strain/Sex: SPRAGUE-DAWLEY/FEMALE, Target Tissue: Type of Lesion: MAMMARY GLAND: TUMOR, Dose [Carcinogen]: 15 MG AT 50 D OF AGE, ONCE) | tumour outcome (control, treated, inhibition, significance) (Carcinogen: 7,12-DIMETHYLBENZ[A]ANTHRACENE (57-97-6), Dose [Inhibitor]: 40 MG/KG DIET 2 WKS BEFORE CARCINOGEN TO END, Route [Inhibitor]: DIET, Species: RAT, Strain/Sex: SPRAGUE-DAWLEY/FEMALE, Target Tissue: Type of Lesion: MAMMARY GLAND: TUMOR, Dose [Carcinogen]: 15 MG AT 50 D OF AGE, ONCE) | outcome (Carcinogen: AZOXYMETHANE (25843-45-2), Dose [Inhibitor]: 25 UG/KG DIET 2 WKS AFTER CARCINOGEN TO END (STUDY DURATION: 10 WKS), Route [Inhibitor]: DIET, Species: MOUSE, Strain/Sex: CF-1, Target Tissue: Type of Lesion: COLON: TOTAL ABERRANT CRYPT FOCI (SURROGATE FOR COLON TUMOR), Dose [Carcinogen]: 10 MG/KG BW WEEKLY FOR 2 WKS (STUDY DURATION: 10 WKS)) | outcome (Carcinogen: AZOXYMETHANE (25843-45-2), Dose [Inhibitor]: 25 UG/KG DIET 2 WKS BEFORE CARCINOGEN TO 2 WKS AFTER (STUDY DURATION: 10 WKS), Route [Inhibitor]: DIET, Species: MOUSE, Strain/Sex: CF-1, Target Tissue: Type of Lesion: COLON: TOTAL ABERRANT CRYPT FOCI (SURROGATE FOR COLON TUMOR), Dose [Carcinogen]: 10 MG/KG BW WEEKLY FOR 2 WKS (STUDY DURATION: 10 WKS)) | outcome (Carcinogen: AZOXYMETHANE (25843-45-2), Dose [Inhibitor]: 25 UG/KG DIET 2 WKS BEFORE CARCINOGEN TO END (STUDY DURATION: 10 WKS), Route [Inhibitor]: DIET, Species: MOUSE, Strain/Sex: CF-1, Target Tissue: Type of Lesion: COLON: TOTAL ABERRANT CRYPT FOCI (SURROGATE FOR COLON TUMOR), Dose [Carcinogen]: 10 MG/KG BW WEEKLY FOR 2 WKS (STUDY DURATION: 10 WKS)) | outcome (Carcinogen: AZOXYMETHANE (25843-45-2), Dose [Inhibitor]: 25 UG/KG DIET 7 D BEFORE CARCINOGEN TO END OF STUDY, Route [Inhibitor]: DIET, Species: MOUSE, Strain/Sex: CF-1, Target Tissue: Type of Lesion: COLON: ABERRANT CRYPT FOCI (SURROGATE FOR COLON TUMOR), Dose [Carcinogen]: 10 MG/KG BW WEEKLY FOR 2 WKS) | outcome (Carcinogen: N-METHYL-N-NITROSOUREA ( 684-93-5), Dose [Inhibitor]: 0, 25, 50 UG/KG DIET 2 WKS BEFORE CARCINOGEN CONTINUING FOR 120 D (STUDY DURATION: 120 D), Dose [Inhibitor]: 0, 25, 50 UG/KG DIET 2 WKS BEFORE CARCINOGEN CONTINUING FOR 120 D (STUDY DURATION: 120 D), Route [Inhibitor]: DIET, Species: RAT, Strain/Sex: SPRAGUE-DAWLEY/FEMALE, Target Tissue: Type of Lesion: MAMMARY GLAND: TUMOR, Dose [Carcinogen]: 50 MG/KG BW ONCE) | tumour outcome (control, treated, inhibition, significance) (Carcinogen: N-METHYL-N-NITROSOUREA, 684-93-5, Dose [Inhibitor]: 0, 25 UG/KG DIET AT 65 D OF AGE FOR THE DURATION OF THE STUDY (STUDY DURATION: 120 D), Route [Inhibitor]: ORAL, Species: RAT, Strain/Sex: SPRAGUE-DAWLEY, Target Tissue: Type of Lesion: MAMMARY GLAND: TUMOR, Dose [Carcinogen]: 50 MG/KG BW ONCE AT 80 D OF AGE, Promoter: NONE) | tumour outcome (control, treated, inhibition, significance) (Carcinogen: N-METHYL-N-NITROSOUREA, 684-93-5, Dose [Inhibitor]: 0, 50 UG/KG DIET AT 65 D OF AGE FOR THE DURATION OF THE STUDY (STUDY DURATION: 120 D), Route [Inhibitor]: ORAL, Species: RAT, Strain/Sex: SPRAGUE-DAWLEY, Target Tissue: Type of Lesion: MAMMARY GLAND: TUMOR, Dose [Carcinogen]: 50 MG/KG BW ONCE AT 80 D OF AGE, Promoter: NONE) | tumour outcome (control, treated, inhibition, significance) (Carcinogen: 4-(METHYLNITROSAMINO)-1-(3-PYRIDYL)-1-BUTANONE, 64091-91-4, Dose [Inhibitor]: 0, 0.04 UMOL ONCE 2 HR PRIOR TO CARCINOGEN DOSE (STUDY DURATION: 16 WK), Route [Inhibitor]: GAVAGE, Species: MOUSE, Strain/Sex: STRAIN-A/FEMALE, Target Tissue: Type of Lesion: LUNG: ADENOMA, Dose [Carcinogen]: 10 UMOL IN 0.1 ML SALINE ONCE, Promoter: NONE USED) | tumour outcome (control, treated, inhibition, significance) (Carcinogen: 4-(METHYLNITROSAMINO)-1-(3-PYRIDYL)-1-BUTANONE, 64091-91-4, Dose [Inhibitor]: 0, 0.1 UMOL ONCE 2 HR PRIOR TO CARCINOGEN DOSE (STUDY DURATION: 16 WK), Route [Inhibitor]: GAVAGE, Species: MOUSE, Strain/Sex: STRAIN-A/FEMALE, Target Tissue: Type of Lesion: LUNG: ADENOMA, Dose [Carcinogen]: 10 UMOL IN 0.1 ML SALINE ONCE, Promoter: NONE USED) | tumour outcome (control, treated, inhibition, significance) (Carcinogen: 4-(METHYLNITROSAMINO)-1-(3-PYRIDYL)-1-BUTANONE, 64091-91-4, Dose [Inhibitor]: 0, 0.2 UMOL ONCE 2 HR PRIOR TO CARCINOGEN DOSE (STUDY DURATION: 16 WK), Route [Inhibitor]: GAVAGE, Species: MOUSE, Strain/Sex: STRAIN-A/FEMALE, Target Tissue: Type of Lesion: LUNG: ADENOMA, Dose [Carcinogen]: 10 UMOL IN 0.1 ML SALINE ONCE, Promoter: NONE USED)
C=C1/C(=C\C=C2/CCC[C@]3(C)[C@@H]([C@H](C)CC[C@@H](CC)C(C)C)CC[C@@H]23)C[C@@H](O)C[C@@H]1O | 85%, 50%, 41%, p<0.05 | 85%, 70%, 18%, not significant | 85%, 50%, 41%, not calculated | 9.6, 2.0, 79%, not calculated | 9.6, 2.8, 71%, not calculated | 9.6, 1.8, 81%, not calculated | 29%, 1.4, 95%, p<0.001 | 80%, 53%, 34%, not calculated; 47%, 41%, not calculated | 12/15 (80%), 8/15 (53%), 33%, not significant | 12/15 (80%), 7/15 (47%), 41%, p=0.03 |  |  | 
S=C=NCCCCCCCCCCc1ccccc1 |  |  |  |  |  |  |  |  |  |  | 100%, 100%, 0%, not significant | 100%, 100%, 0%, not significant | 100%, 70%, 30%, p<0.05
